# Data: patent US11351130B2, “Prevention and reversal of inflammation induced DNA damage” (Indiana University Research and Technology Corporation, priority 2017, dated 2022)
# How the values were obtained:
# [1] = tested on: neuronal cultures derived from DRG; experiment: pH2A.X immunoblotting in DRG neuronal cultures (Example 1); type: cell-based, rat
# Description: (§1) Dorsal root ganglia (DRG) were dissected from all spinal levels of adult male (150-175 g) Sprague-Dawley rats (Envigo, Indianapolis, Ind.) and the cells were dissociated as previously described (Kelley et al., 2014). Briefly, the rats were euthanized by CO2 asphyxiation. DRGs were transferred into collagenase solution (1 mg/ml) and incubated for 1 hour at 37° C. The digested DRGs were then rinsed with growth medium, centrifuged and dissociated by mechanical agitation. Approximately 30,000 cells were plated into each well of 12-well culture plates. All culture dishes were precoated with poly-D-lysine and laminin. Cells were maintained in F-12 media supplemented with 10% horse serum, 2 mM glutamine, 100 μg/ml Normocin, 50 μg/ml penicillin, 50 μg/ml streptomycin, 50 μM 5-fluoro-2′-deoxyuridine, 150 μM uridine, and 30 ng/ml of NGF in 3% CO2 at 37° C. Growth medium was changed every other day.
# (§2) Small interfering RNAs to APE1 (APE1siRNA) and scrambled siRNA (SCsiRNA) controls were used to decrease APE1 protein expression in sensory neuronal cell cultures and as controls, respectively, as described previously (Vasko et al., 2005, Jiang et al., 2008a). On day 3 in culture, the growth media was replaced with 0.5 ml of Opti-MEM 1 media containing 100 nM of APE1siRNA (5′-[…]-3′ (SEQ ID NO:1)) or SCsiRNA (5′-[…]-3′(SEQ ID NO:2)); (Vasko et al., 2005)) and 10 μl of the transfecting reagent, Neuroporter. On the next day, 0.5 ml of the growth media without antibiotics was added to each well, and after an additional 24 hours the media containing siRNA was replaced with normal growth media.
# (§3) Lentiviral constructs containing (1) the CMV promoter, HA-tagged APE1, IRES, and enhanced green fluorescent protein (EGFP); or (2) CMV, IRES, and EGFP were developed. DNA sequencing confirmed the constructs in the pLenti6-R4R2-V5 plasmid containing WT-, C65-, or 226+177-APE1-IRES-EGFP. For lentiviral infections, DRG cells were cultured 5 days before 150 pfu/cell of the lentivirus was added to the media. Two days later, the virus was removed and the cells grown an additional 5 days in regular media.
# Tissues or cells were harvested, lysed in RIPA buffer (Santa Cruz Biotechnology; Santa Cruz, Calif., USA), sonicated, and cleared of cellular debris by centrifuging at 4000 RPM for 2 minutes. Protein was quantified using Lowry assay, and electrophoresed in a 12% SDS-polyacrylamide gel. After electrophoresis, proteins were transferred to a PVDF membrane, and blocked with Tris-buffered saline containing 0.1% Tween-20 (TBST) and 5% nonfat dry milk for 1 hour at room temperature while gently agitating. Mouse monoclonal antihuman Ape1 antibodies (1:1000), mouse monoclonal anti-phospho H2AX antibodies (1:1000), mouse monoclonal anti-vinculin antibody (1:1000), and anti-Hemagglutinin (HA) antibody were added to the blocking solution and incubated for 2 hours at room temperature while gently agitating. Antibody binding was detected following appropriate secondary antibody methods using chemiluminescence. The density of the bands was measured using Quantity One software from Bio-Rad (Hercules, Calif.) and data expressed as density normalized to vinculin.
# [2] = tested on: neuronal cultures derived from DRG; experiment: CGRP release from DRG neuronal cultures (Example 1); type: cell-based, rat; conditions: for capsaicin-stimulated release of CGRP: 24 hours
# Description: as §1, §2, §3
# After neuronal cultures were treated with the appropriate drugs, the cultures were washed once with HEPES buffer consisting of (in mM) 25 HEPES, 135 NaCl, 3.5 KCl, 2.5 CaCl2, 1 MgCl2, 3.3 D-glucose, and 0.1% bovine serum albumin, pH 7.4 and maintained at 37° C. They were then incubated for successive 10-minute intervals with 0.4 ml of HEPES buffer alone (basal release), with buffer containing 30 nM capsaicin, then with buffer alone (to assess return to basal release). After each incubation, the buffer was removed and the amount of immunoreactive CGRP in each sample was measured using radioimmunoassay as previously described (Chen et al., 1996). After the release experiment, the cells in each well were in 0.4 ml of 0.1 M HCl10 minutes and an aliquot taken to measure total CGRP content in the cultures using radioimmunoassay. Total content (fmol/well) was calculated by adding the total amount released in all incubations to the amount measured in the cells. The release data is calculated as fmol released/well/10 minutes.
# NFκB = experiment: NF-κB luciferase reporter transactivation assay; type: cell-based; conditions: read-out: inhibition of NFκB binding to the reporter construct, IC50
# Description: Reporter assays were performed as previously described (Georgiadis et al., 2008; Kelley et al., 2011; Cardoso et al., 2012b; Luo et al., 2012). Cells were transfected with NF-κB-Luciferase construct containing an NF-κB-response promoter and driving the expression of a luciferase gene and a Renilla luciferase control reporter vector pRL-CMV. After a 24-hour transfection period, cells were lysed, and Firefly and Renilla luciferase activities were assayed using Renilla luciferase activity for normalization. All of the transfection experiments were performed in triplicate and repeated at least three times in independent experiments. Data are expressed as mean±standard error from a representative experiment, and Student's t tests were performed.
# [3] = tested on: sensory neuronal cultures; experiment: Neuronal cell viability (trypan blue exclusion); type: cell-based
# Description: (§4) Primary cultures of sensory neurons were harvested and maintained as previously described (Vasko et al., 2005). Briefly, adult male Sprague-Dawley rats (150-175 g; Harlan, Indianapolis, Ind.) were euthanized by CO2 asphyxiation and dorsal root ganglia (DRG) dissected from all spinal levels, transferred to into a collagenase solution (1 mg/ml), incubated for 1 hour at 37° C., then dissociated by mechanical agitation. Approximately 30,000 cells or 60,000 cells were plated into each well of 12-well or 6-well culture plates, respectively. All culture dishes were precoated with poly-D-lysine and laminin. Cells were maintained in F-12 media supplemented with 10% horse serum, 2 mM glutamine, 100 μg/ml Normocin™, 50 μg/ml penicillin, 50 μg/ml streptomycin, 50 μM 5-fluoro-2′-deoxyuridine (Invitrogen), 150 μM uridine, and 30 ng/ml of NGF in 3% CO2 at 37° C. Growth medium was changed every other day. Experiments were performed after cells were maintained in culture for 12-14 days.
# Sensory neuronal culture trypan blue exclusion analysis was performed as previously described (Vasko et al., 2011). Cells were detached by adding a 0.05% trypsin-EDTA solution and media to each well. An equal volume of 0.4% (w/v) trypan blue in PBS was added to the cell suspension and the numbers of living cells (i.e., those that exclude the dye) were counted under a phase contrast microscope using a hemacytometer. Percent survival was calculated as the percent of live cells divided by the total cell number (including dead and live cells).
# APE1 [4] = target: T1, APE1 (Homo sapiens, UniProt P27695); experiment: AP endonuclease DNA repair assay; type: biochemical; conditions: APX2009 in the nanomolar range
# T1 sequence (P27695 whole entry, species assumed): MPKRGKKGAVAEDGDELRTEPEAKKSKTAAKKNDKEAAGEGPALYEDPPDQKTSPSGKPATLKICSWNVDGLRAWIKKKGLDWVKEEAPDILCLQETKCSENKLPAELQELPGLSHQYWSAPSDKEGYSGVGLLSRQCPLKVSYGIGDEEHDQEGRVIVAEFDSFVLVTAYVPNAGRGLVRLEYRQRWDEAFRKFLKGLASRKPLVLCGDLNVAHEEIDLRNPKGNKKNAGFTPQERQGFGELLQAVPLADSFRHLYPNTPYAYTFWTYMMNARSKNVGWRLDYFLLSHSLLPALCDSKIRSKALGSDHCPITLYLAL
# Description: Inhibition or enhancement of APE1 DNA repair endonuclease activity was performed as previously described (Bapat et al., 2010). The APE1 repair activity assay was performed in a plate assay using two annealed oligonucleotides (5′-6-FAM-GCCCCC*[…]-3′ (SEQ ID NO:3) and 3′-Q-[…]-5′ (SEQ ID NO:4)) containing a quencher on one strand and a fluorescent 6-FAM label with tetrahydrofuran as an AP site mimic. Oligo cleavage at the AP mimic site results in 6-FAM release and detection. The fluorescence was read at five, one-minute intervals using a Tecan Ultra plate reader (Chemical Genomics Core, Indiana University School of Medicine). The rate of the reaction was used to determine the change in APE1 repair activity as compared to the vehicle control.
# [5] = tested on: sensory neurons in culture; type: cell-based, rat
# Description: as §4
# For release experiments, cell cultures were washed with HEPES buffer consisting of (in mM) 25 HEPES, 135 NaCl, 3.5 KCl, 2.5 CaCl2, 1 MgCl2, 3.3 D-glucose, and 0.1% bovine serum albumin, pH 7.4 and maintained at 37° C. They then were incubated for successive 10-minute intervals with 0.4 ml of HEPES buffer alone (basal release), with buffer containing 30 nM capsaicin, then with buffer alone (to assess return to basal release). After each incubation, the buffer was removed and the amount of immunoreactive calcitonin-gene related peptide (CGRP) in each sample was measured using radioimmunoassay (RIA) as previously described (Chen et al., 1996). At the end of the release protocol, CGRP is extracted from the cultures and total content measured using RIA.
# [6] = tested on: sensory neuronal cultures; experiment: phospho-H2AX immunoblotting in sensory neuronal cultures (Example 3); type: cell-based, rat
# Description: as §4
# Immunoblotting was performed as previously described (Kelley et al., 2014). Briefly, cells were lysed in RIPA buffer (Santa Cruz Biotechnology; Santa Cruz, Calif., USA) and protein was quantified using the Lowey assay. Proteins were separated by electrophoresis on a 4-12% SDS-polyacrylamide gel. The gel was transferred to a PVDF membrane and incubated overnight at 4° C. in Tris-buffered saline containing 0.1% Tween-20 (TBST) and 5% nonfat dry milk while gently agitating. Mouse monoclonal antihuman Ape1 antibodies (1:500), mouse monoclonal anti-phospho H2AX antibodies (1:1000), or (3-Actin monoclonal antibody (1:1000) were added to the blocking solution and incubated overnight at room temperature while gently agitating. Antibody binding was detected following appropriate secondary antibody methods using chemiluminescence. The density of the bands was measured using QUALITYONE® software from Bio-Rad (Hercules, Calif.) and data expressed as density normalized to actin.
# APE1 [7] = target: T1, APE1; experiment: redox APE1 electrophoretic mobility shift assay (EMSA); type: biochemical; set-up: Purified APE1 was reduced with 1.0 mM DTT for 10 minutes; conditions: read-out: redox inhibition IC50
# Description: EMSAs were performed as described (Luo et al., 2012). Purified APE1 was reduced with 1.0 mM DTT for 10 minutes and diluted to a final concentration of 0.006 mM with 0.02 mM DTT in PBS. Reduced APE1 was added to EMSA reaction buffer (10 mM Tris (pH 7.5), 50 mM NaCl, 1 mM MgCl2, 1 mM EDTA, 5% [vol/vol] glycerol) with […] 0.007 mM protein mixture (1:1) of purified truncated c-Jun and c-Fos proteins containing DNA-binding domain and leucine zipper and incubated for 30 minutes at room temperature. The EMSA assay was performed as previously described (Luo et al., 2008; Nyland et al., 2010; Kelley et al., 2011; Luo et al., 2012).
compound,measurement,setting,value
MCP-1: Recombinant rat CCL2/MCP-1 protein,levels of pH2A.X over time,"[1]; LPS 1 μg/ml, MCP-1 100 ng/ml",induced pH2A.X expression
same,onset of pH2A.X increase,"[1]; LPS 1 μg/ml, MCP-1 100 ng/ml",16 hours
same,peak of pH2A.X increase,"[1]; LPS 1 μg/ml, MCP-1 100 ng/ml",24 hours
same,pH2A.X expression,"[1]; SCsiRNA-treated cultures, 24 hours, LPS 3 μg/ml, MCP-1 0.3 μg/ml",enhanced expression of pH2A.X
same,CGRP release relative to the release in the absence of MCP-1,"[2]; 0.3 μg/ml MCP-1, 24 hours",142.8%
same,capsaicin-stimulated release of CGRP,[2]; 0.3 μg/ml,13.0±0.8 % of total content
same,capsaicin-stimulated release of CGRP,[2]; 1.0 μg/ml,15.0±1.0 % of total content
same,capsaicin-stimulated release of CGRP,[2]; 10.0 μg/ml,6.3±1.0 % of total content
same,release of CGRP stimulated by capsaicin,"[2]; APE1siRNA-treated cultures, MCP-1 0.3 μg/ml",caused a decrease in CGRP release
same,release of CGRP stimulated by capsaicin,"[2]; SCsiRNA-treated cultures, MCP-1 0.3 μg/ml",enhanced the release of CGRP
same,total content of CGRP compared with vehicle,[2]; data not shown,similar
"CCC/C(=C\C1=C(OC)C(=O)c2ccccc2C1=O)C(=O)N(C)C [APX2007, (2E)-2-[(3-methoxy-1,4-dioxo-1,4-dihydronapthalen-2-yl)methylidene]-N,N-dimethylpentanamide]",IC50,NFκB,7 µM
same,effect on cisplatin-induced cell death,[3]; 20 μM for 48 hours prior to and throughout the cisplatin treatment (24 hours),did not attenuate the cisplatin-induced cell death
same,"cell viability, drug alone","[3]; 40 μM, 24 hours",significant reduction in cell viability
same,"cell death, drug alone","[3]; 20 or 40 μM, 72 hours (data not shown)",significant increase in cell death
same,APE1 repair (endonuclease) activity,APE1 [4],no effect
same,effect on cisplatin-induced reduction in capsaicin-evoked CGRP release,"[5]; 10 μM, 72 hour treatment, 10 μM cisplatin",did not prevent the cisplatin-induced reduction in release
same,"CGRP release, drug alone","[5]; 10 μM, 72 hours",did not affect CGRP release
same,"capsaicin-stimulated release of CGRP, drug alone","[5]; 20 μM, 72 hours",significant increase in capsaicin-stimulated release
same,effect on cisplatin-induced pH2AX levels (DNA damage),[6]; 20 μM for 48 hours prior to and throughout exposure to 10 μM cisplatin,neither APX2007 nor APX2032 (20 μM) altered the ability of cisplatin to produce DNA damage
same,IC50,APE1 [7],2 µM
Cc1ccc2c(c1)C1(CCN(CCc3nc(-c4ccccc4)oc3C)CC1)OC(=O)N2 [RS 50493],pH2A.X expression relative to the expression elicited by MCP-1 alone,"[1]; 0.3 μg/ml MCP-1 24 hr, RS 50493 1 μM",8.5%
same,reduction of LPS-induced increase in pH2A.X expression,"[1]; 3.0 μg/ml LPS 24 hr, LPS-RS 2 μg/ml, RS 50493 1 μM, from 1 hour prior",92.5 % reduction
same,effect on MCP-1-induced augmentation of CGRP release,"[2]; 0.3 μg/ml MCP-1, RS 50493 1 μM",prevented
same,effect on LPS-induced decrease in CGRP release,"[2]; 3.0 μg/ml LPS, LPS-RS 2 μg/ml, RS 50493 1 μM",blocked the decrease in release induced by LPS
COc1cc(CNC(=O)CCCC/C=C/C(C)C)ccc1O [capsaicin],release of CGRP stimulated by capsaicin,"[2]; 30 nM capsaicin, 10-minute period, no inflammatory mediator",approximately 10 % of the total content
"N.N.[Cl][Pt][Cl] [cisplatin, reference compound]",levels of pH2AX,[6]; 10 μM cisplatin for 24 or 48 hours,significant increase in the levels of pH2AX
